Laboratory results published in patent publication US20170280720A1, “ARGININE […] INHIBITORS AND USES THEREOF” (EPIZYME, INC., priority 2014, published 2017).

Key:
[1] = biological target: T1, human PRMT1 (Homo sapiens, UniProt Q99873); experiment: PRMT1 biochemical assay (3H-SAM Flashplate, peptide substrate); details: read-out: PRMT1_ IC50
T1 construct: GST-tagged PRMT1; made in house; host or cells: High Five insect cells (baculovirus, pFastBacI)
Outline: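 FLAG-tagged full-length human PRMT1 (0.5 nM, GST-tagged, insect-cell expressed) preincubated 30 min at RT with compound, then biotinylated histone H4 36-50 peptide (20 nM) plus 200 nM 3H-SAM and 1.5 uM SAM in Bicine pH 7.6, 2% DMSO. 3H-methylated peptide captured on streptavidin Flashplate; IC50 from 3/4-parameter fit.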

[2] = biological target: PRMT5 (Homo sapiens, UniProt O14744); experiment: PRMT5 IC50 (Table 2; no method described); type: biochemical; details: read-out: PRMT5_ IC50
Chain of PRMT5 (O14744 whole entry, species assumed): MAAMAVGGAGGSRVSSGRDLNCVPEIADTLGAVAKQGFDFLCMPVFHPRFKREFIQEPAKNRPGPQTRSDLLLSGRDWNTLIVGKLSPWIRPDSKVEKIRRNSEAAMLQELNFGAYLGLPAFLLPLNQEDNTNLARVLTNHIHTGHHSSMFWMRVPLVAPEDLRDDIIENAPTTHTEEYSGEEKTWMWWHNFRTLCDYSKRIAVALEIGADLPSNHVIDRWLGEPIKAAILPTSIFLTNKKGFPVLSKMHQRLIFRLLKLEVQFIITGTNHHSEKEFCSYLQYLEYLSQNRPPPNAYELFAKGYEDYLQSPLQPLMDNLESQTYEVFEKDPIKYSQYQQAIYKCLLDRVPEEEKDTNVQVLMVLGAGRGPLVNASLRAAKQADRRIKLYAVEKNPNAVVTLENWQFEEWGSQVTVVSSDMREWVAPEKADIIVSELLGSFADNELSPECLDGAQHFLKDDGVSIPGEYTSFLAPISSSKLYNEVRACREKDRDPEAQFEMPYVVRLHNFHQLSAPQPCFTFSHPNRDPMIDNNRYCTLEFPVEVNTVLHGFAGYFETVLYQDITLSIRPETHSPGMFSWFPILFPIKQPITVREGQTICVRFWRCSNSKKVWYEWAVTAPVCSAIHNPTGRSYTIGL
Chain of PRMT5 (Q9BQA1 whole entry partner, species assumed): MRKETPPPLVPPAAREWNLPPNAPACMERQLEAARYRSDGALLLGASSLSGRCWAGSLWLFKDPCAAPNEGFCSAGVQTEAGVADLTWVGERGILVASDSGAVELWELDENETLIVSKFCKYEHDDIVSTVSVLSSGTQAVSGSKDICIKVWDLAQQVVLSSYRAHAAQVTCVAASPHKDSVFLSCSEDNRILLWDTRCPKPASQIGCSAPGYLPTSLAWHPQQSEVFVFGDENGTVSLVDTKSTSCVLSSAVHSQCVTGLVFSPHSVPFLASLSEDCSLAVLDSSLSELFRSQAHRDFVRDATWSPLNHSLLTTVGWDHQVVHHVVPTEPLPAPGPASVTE

T1 sequence (Q99873 with tags, fused parts or gaps): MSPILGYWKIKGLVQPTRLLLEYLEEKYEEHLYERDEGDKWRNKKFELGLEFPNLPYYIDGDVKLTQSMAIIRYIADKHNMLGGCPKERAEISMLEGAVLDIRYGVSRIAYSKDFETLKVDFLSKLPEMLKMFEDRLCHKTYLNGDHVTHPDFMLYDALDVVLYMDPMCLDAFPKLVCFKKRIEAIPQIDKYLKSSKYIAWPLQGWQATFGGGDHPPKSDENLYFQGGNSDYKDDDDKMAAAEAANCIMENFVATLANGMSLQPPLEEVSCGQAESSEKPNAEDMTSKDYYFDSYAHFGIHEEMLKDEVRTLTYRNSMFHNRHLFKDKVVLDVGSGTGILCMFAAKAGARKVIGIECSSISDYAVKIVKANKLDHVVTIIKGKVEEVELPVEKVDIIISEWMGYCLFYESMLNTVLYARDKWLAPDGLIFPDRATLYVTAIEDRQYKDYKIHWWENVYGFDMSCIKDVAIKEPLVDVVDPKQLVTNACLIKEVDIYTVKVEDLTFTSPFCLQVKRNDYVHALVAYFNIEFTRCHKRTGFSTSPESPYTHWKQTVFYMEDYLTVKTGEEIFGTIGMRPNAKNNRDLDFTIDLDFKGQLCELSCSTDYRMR

| SMILES | IC50 [1] | IC50 [2] |
| --- | --- | --- |
| CNCCN(C)Cc1cccc(-c2nc(NCc3nccs3)c3cnn(C4CC4)c3n2)c1 [Compound 2] | 21.7 nM |  |
| CNCCN(C)Cc1cccc(-c2nc(C(=O)NCc3cn4ccsc4n3)c3cnn(C4CC4)c3n2)c1 [Compound 180] |  | 200000 nM |
| CNCCN(C)Cc1cccc(-c2cc(C(=O)NCc3ccncc3)c3cnn(C(C)C)c3n2)c1 [Compound 182] |  | 12100 nM |
| CC(C)n1ncc2c(C(=O)N(C)CC3CCOCC3)cc(-c3cccc(CN(C)CCN)c3)nc21 [Compound 256] |  | 50000 nM |
| CN(CCN)Cc1cccc(-c2ccc(C(=O)NCC3CCOCC3)c(N(C)CC3CC3)c2)c1 [Compound 263] |  | 7730 nM |
| CNCCN(C)Cc1cccc(-c2cc(C(=O)N(C)Cc3ccccn3)c3cnn(C(C)C)c3n2)c1 [Compound 300] |  | 34300 nM |
| Cc1cc(C)c(CNC(=O)c2cc(-c3cccc(CN(C)CCN)c3)nc3c2cnn3C(C)C)c(=O)[nH]1 [Compound 360] | 254 nM | 15400 nM |
| Cc1cc(C)c(CNC(=O)c2cc(-c3cccc(CN(C)CCN(C)C)c3)nc3c2cnn3C(C)C)c(=O)[nH]1 [Compound 361] | 4270 nM |  |
| Cc1cc(C)c(CNC(=O)c2cc(-c3cccc(CNCCN)c3)cc3[nH]ncc23)c(=O)[nH]1 [Compound 366] | 2400 nM | 4200 nM |
| CNCCN(C)Cc1cccc(-c2cc(C(=O)NCc3c(C)cc(C)[nH]c3=O)c3cnn(C(C)C)c3c2)c1 [Compound 367] | 183 nM |  |
| CNCCN(C)Cc1cccc(-c2cc(C(=O)NCc3c(C)cc(C)[nH]c3=O)c3cnn(C(C)C)c3n2)c1 [Compound 368] | 86.6 nM |  |
| CNCCN(C)Cc1cccc(-c2cc(C(=O)NCc3c(C)cc(C)[nH]c3=O)c(C)c3[nH]ncc23)c1 [Compound 372] | 59.6 nM |  |
| CNCCN(C)Cc1ccc(-c2cncc(C(=O)NCc3c(C)cc(C)[nH]c3=O)c2)cc1 [Compound 373] | 64.7 nM | 14700 nM |
| Cc1cc(C)c(CNC(=O)c2cncc(-c3ccc(CN(C)CCN)cc3)c2)c(=O)[nH]1 [Compound 374] | 73.1 nM | 44300 nM |
| CNCCN(C)Cc1cccc(-c2cc(C(=O)NCCCC(=O)NCc3c(C)cc(C)[nH]c3=O)c3cnn(C(C)C)c3n2)c1 [Compound 383] | 212 nM |  |
| COc1nc(C)cc(C)c1CNC(=O)c1cc(-c2cccc(CN(C)CCN(C)C)c2)nc2c1cnn2C(C)C [Compound 386] | 1610 nM |  |

Next, values leading:

| IC50 [1] | IC50 [2] | SMILES |
| --- | --- | --- |
| 4660 nM |  | Cc1cc(C)c(CNC(=O)c2cc(-c3ccc(CNCCN(C)C)cc3)nc3c2cnn3C(C)C)c(=O)[nH]1 [Compound 359] |
| 104 nM |  | CNCCN(C)Cc1ccc(-c2cc(C(=O)NCc3c(C)cc(C)[nH]c3=O)c(C)c3n[nH]cc23)cc1 [Compound 362] |
| 7490 nM | 49000 nM | Cc1cc(C)c(CNC(=O)c2cc(-c3cccc(CNCCN)c3)nc3c2cnn3C(C)C)c(=O)[nH]1 [Compound 365] |
| 418 nM |  | CNCCN(C)Cc1ccc(-c2cc(C(=O)NCc3c(C)cc(C)[nH]c3=O)c(C)c3nn(C4CCCC4)cc23)cc1 [Compound 370] |
| 11800 nM |  | Cc1cc(C)c(CNC(=O)c2cc(CNCCN(C)C)cc3c2cnn3C2CCCC2)c(=O)[nH]1 [Compound 371] |
| 297 nM | 66600 nM | Cc1cc(C)c(CNC(=O)c2cncc(-c3ccc(CN(C)CCN(C)C)cc3)c2)c(=O)[nH]1 [Compound 378] |
| 335 nM | 2120 nM | Cc1cc(C)c(CNC(=O)c2cncc(-c3ccc(CNCCN)cc3)c2)c(=O)[nH]1 [Compound 379] |
| 177 nM |  | CNCCN(C)Cc1cccc(-c2cc(C(=O)NCCCCCC(=O)NCc3c(C)cc(C)[nH]c3=O)c3cnn(C(C)C)c3n2)c1 [Compound 382] |
| 220 nM |  | CNCCN(C)Cc1cccc(-c2cc(C(=O)NCCC(=O)NCc3c(C)cc(C)[nH]c3=O)c3cnn(C(C)C)c3n2)c1 [Compound 384] |
| 232 nM |  | CNCCN(C)Cc1cccc(-c2cc(C(=O)NCCCCC(=O)NCc3c(C)cc(C)[nH]c3=O)c3cnn(C(C)C)c3n2)c1 [Compound 385] |
| 1220 nM | 30500 nM | COc1nc(C)cc(C)c1CNC(=O)c1cc(-c2cccc(CNCCN)c2)nc2c1cnn2C(C)C [Compound 391] |
